For 9 compounds, Ki results are on record in patent publication US5574013A (Warner-Lambert Company, priority 1993, dated 1996).

For this assay, the target named is T1, CCK B (Mus musculus, UniProt P56481).
T1 construct: from tissue; host or cells: cerebral cortex membranes of male CFLP mice
T1 sequence (P56481 1-453): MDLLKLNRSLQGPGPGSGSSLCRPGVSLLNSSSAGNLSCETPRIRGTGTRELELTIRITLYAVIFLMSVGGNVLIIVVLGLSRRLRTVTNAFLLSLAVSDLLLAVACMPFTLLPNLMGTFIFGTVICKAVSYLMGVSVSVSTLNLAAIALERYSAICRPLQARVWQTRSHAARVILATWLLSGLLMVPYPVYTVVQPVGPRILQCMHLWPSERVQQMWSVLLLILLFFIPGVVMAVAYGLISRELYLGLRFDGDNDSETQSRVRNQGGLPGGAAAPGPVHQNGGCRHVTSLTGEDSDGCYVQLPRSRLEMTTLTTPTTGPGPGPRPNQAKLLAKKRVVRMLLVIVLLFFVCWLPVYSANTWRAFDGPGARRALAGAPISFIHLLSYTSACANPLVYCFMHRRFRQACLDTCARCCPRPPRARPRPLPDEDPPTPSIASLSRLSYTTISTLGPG
Briefly: CCK receptor binding screening test, displacement of tritiated-pentagastrin from mouse cerebral cortical membranes. Particulars: Ki by Cheng-Prusoff; 2 nM tritiated-pentagastrin; mouse cerebral cortex membranes; read-out: Binding Affinity CCK B. The procedure: The biological activity of compounds of the present invention was evaluated employing an initial screening test which rapidly and accurately measured the binding of the tested compound to known CCK receptor sites. […] (See Hays et al, Neuropeptides 1:53-62, 1980; and Satuer et al, Science 208:1155-1156, 1980.
In this screening test, the cerebral cortices taken from male CFLP mice weighing between 30-40 g were dissected on ice, weighed, and homogenized in 10 volumes of 50 mM Tris-HCl buffer (pH 7.4 at 0°-4° C.). The resulting suspension was centrifuged, the supernate was discarded, and the pellet was washed by resuspension in Tris-HCl buffer followed by recentrifugation. The final pellet was resuspended in 20 volumes of […] Hepes buffer (pH 7.2 at 23° C.) containing 130 mM NaCl, […] KCl, […] MgCl2, […] EDTA, 5 mg/mL bovine albumin, and bacitracin (0.25 mg/mL).
In saturation studies, cerebral cortical membranes were incubated at 23° C. for 120 minutes in a final volume of 500 μL of Hepes incubation buffer (pH 7.2) together with 0.2-20 nM tritiated-pentagastrin (Amersham International, England).
In the displacement experiments, membranes were incubated with a single concentration (2 nM) of ligand, together with increasing concentrations ([…]) of competitive test compound. In each case, the nonspecific binding was defined as that persisting in the presence of the unlabeled octapeptide CCK26-33 (10^-6 M).
Following incubation, radioactivity bound to membranes was separated from that free in solution by rapid filtration through Whatman GF/B filters and washed three times with 4 mL of ice cold Tris-HCl buffer. Filters from samples incubated with tritiated-pentagastrin were placed in polyethylene vials with 4 mL of scintillation cocktail, and the radioactivity was estimated by liquid scintillation spectrometry (efficiency 47-52%).
The specific binding to CCK receptor sites was defined as the total bound tritiated-pentagastrin minus the amount of tritiated-pentagastrin bound in the presence of 10^-6 octapeptide, CCK26-33.
Saturation curves for specific tritiated-pentagastrin binding to mouse cortical membranes were analyzed by the methods of Scatchard (Ann. New York Acad. Sci. 51:660-672, 1949, and Hill (J. Physiol. 40:IV-VIII, 1910, to provide estimates for the maximum number of binding sites (Bmax) and the equilibrium dissociation constant (Ka).
In displacement experiments, inhibition curves were analyzed by either logit-log plots or the iterative curve fitting computer program ALLFIT (DeLean, Munson and Redbard, 1978) to provide estimates of the IC50 and nH (apparent Hill coefficient) values). (IC50 values were defined as the concentration of test compound required to produce 50% inhibition of specific binding.)
The inhibition constant (Ki) of the test compound was then calculated according to the Cheng-Prusoff equation: [formula] where [L] is the concentration of radiolabel and Ka is the equilibrium dissociation constant.
The Ki values for several representative compounds of the present invention are present in Table I.

In the case of `COC(=O)CCCNC(=O)[C@@](C)(Cc1c[nH]c2ccccc12)NC(=O)OC1C2CC3CC(C2)CC1C3` (stereo partly drawn) [Example 1, Butanoic acid, 4-[[3-(1H-indol-3-yl)-2-methyl-1-oxo-2-[[(tricyclo[3.3.1.1^3,7]dec-2-yloxy)carbonyl]amino]propyl]amino]-, methyl ester (R)-], the Ki came to 82.1 nM.
With `C[C@](Cc1c[nH]c2ccccc12)(NC(=O)OC1C2CC3CC(C2)CC1C3)C(=O)NCC(=O)OCc1ccccc1` (stereo partly drawn) [Example 3, Gycine, N-[2-methyl-N-[(tricyclo[3.3.1.1^3,7]dec-2-yloxy)carbonyl]-D-tryptophyl]-, phenylmethyl ester] the figure was 50.4 nM; with `C[C@](Cc1c[nH]c2ccccc12)(NC(=O)OC1C2CC3CC(C2)CC1C3)C(=O)NCC(=O)O` (stereo partly drawn) [Example 4], 1510 nM; with `C[C@](Cc1c[nH]c2ccccc12)(NC(=O)OC1C2CC3CC(C2)CC1C3)C(=O)NCCC(=O)O` (stereo partly drawn) [Example 6, β-Alanine, N-[α-methyl-N-[(tricyclo[3.3.1.1^3,7]dec-2-yloxy)carbonyl]-D-tryptophyl]-], 4380 nM.
As to `C[C@](Cc1c[nH]c2ccccc12)(NC(=O)OC1C2CC3CC(C2)CC1C3)C(=O)NCCC(=O)OCc1ccccc1` (stereo partly drawn) [Example 7, Propanoic acid, 3-[(3-(1H-indol-3-yl)-2-methyl-1-oxo-2-[[(tricyclo[3.3.1.1^3,7]dec-2-yloxy)carbonyl]amino]propyl]amino]--, phenylmethyl ester (R)-], the Ki was 299 nM.
With `CC(C)CC(CO)NC(=O)C(C)(Cc1c[nH]c2ccccc12)NC(=O)OC1C2CC3CC(C2)CC1C3` (stereo not drawn) [Example 8, Carbamic acid, [2-[[1-(hydroxymethyl)-3-methylbutyl]amino]-1-(1H-indol-3-ylmethyl)-1-methyl-2-oxoethyl]-, tricyclo[3.3.1.1^3,7]dec-2-yl ester, [R-(R*,S*)]-] the figure was 292 nM; with `CCC(C)C(CO)NC(=O)C(C)(Cc1c[nH]c2ccccc12)NC(=O)OC1C2CC3CC(C2)CC1C3` (stereo not drawn) [Example 9, Carbamic acid, [2-[[1-(hydroxymethyl)-2-methylbutyl]amino]-1-(1H-indol-3-ylmethyl)-1-methyl-2-oxoethyl]-, tricyclo[3.3.1.1^3,7]dec-2-yl ester, [1S-[1R*(S*), 2R*]]-], 225 nM; with `CSCC[C@H](NC(=O)[C@@](C)(Cc1c[nH]c2ccccc12)NC(=O)OC1C2CC3CC(C2)CC1C3)C(=O)O` (stereo partly drawn) [Example 11, N-[α-methyl-N-[(tricyclo[3.3.1.1^3,7]dec-2-yloxy)carbonyl]-D-tryptophyl]-L-methionine], 24 nM.
`COC(=O)CCNC(=O)[C@H](CCSC)NC(=O)[C@@](C)(Cc1c[nH]c2ccccc12)NC(=O)OC1C2CC3CC(C2)CC1C3` (stereo partly drawn) [Example 12]: the Ki amounted to 30 nM.
